Results published in ChEMBL document CHEMBL1201862, “PubChem BioAssay data set” (2004).
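Cultured in 96-well plates, cells were exposed to test compound for 48 hours across five concentrations. GI50 marks 50% less growth.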 Active and inactive are the calls of the source. Rule as the data show it: active = GI50 up to about 1.1 µM and inactive = higher.

Key:
Assay in all cases: DTP human tumour cell line panel, 48 h
[1] = tested on: COLO 205
[2] = tested on: DU-145
[3] = tested on: HCC 2998
[4] = tested on: HT-29
[5] = tested on: MDA-MB-231
[6] = tested on: MDA-N
[7] = tested on: NCI-H522
[8] = tested on: NCI/ADR-RES
[9] = tested on: PC-3
[10] = tested on: RPMI-8226
[11] = tested on: RXF 393
[12] = tested on: SF-295
[13] = tested on: SK-MEL-28
[14] = tested on: SK-MEL-2
[15] = tested on: SK-OV-3
[16] = tested on: SNB-19
[17] = tested on: SR
[18] = tested on: U-251
[19] = tested on: HL-60
[20] = tested on: OVCAR-8

| SMILES | GI50 [1] | GI50 [2] | GI50 [3] | GI50 [4] | GI50 [5] | GI50 [6] | GI50 [7] | GI50 [8] | GI50 [9] | GI50 [10] | GI50 [11] | GI50 [12] | GI50 [13] | GI50 [14] | GI50 [15] | GI50 [16] | GI50 [17] | GI50 [18] | GI50 [19] | GI50 [20] |
| --- | --- | --- | --- | --- | --- | --- | --- | --- | --- | --- | --- | --- | --- | --- | --- | --- | --- | --- | --- | --- |
| COc1cc2c(cc1OCCCC(=O)Nc1cc(C(=O)NCCCN(C)C)n(C)n1)N=CC1CCCN1C2=O (stereo unspecified) | 8.93 µM (inactive) | 12.9 µM (inactive) | 11.1 µM (inactive) | 7.31 µM (inactive) | 19.7 µM (inactive) | 23.3 µM (inactive) | 5.37 µM (inactive) | > 33.5 µM (inactive) | 17.1 µM (inactive) | 5.66 µM (inactive) | 9.18 µM (inactive) | > 100 µM (inactive) | 5.46 µM (inactive) | 10.8 µM (inactive) | > 42.2 µM (inactive) | 10 µM (inactive) | 0.213 µM (active) | 8.77 µM (inactive) |  |  |
| COc1ccccc1NC(=S)N/N=C(/C)c1ccccn1 | < 0.0119 µM (active) | 1.28 µM (inactive) | 7 µM (inactive) | < 0.01 µM (active) | < 0.01 µM (active) | 0.637 µM (active) |  | < 0.01 µM (active) | < 0.01 µM (active) | < 0.01 µM (active) | 0.658 µM (active) | 0.0771 µM (active) | 1.71 µM (inactive) | 7.5 µM (inactive) | < 0.0213 µM (active) | 6.19 µM (inactive) |  | < 0.0172 µM (active) | < 0.01 µM (active) | 0.0112 µM (active) |
| CC1(C)C(=O)C2(OS(=O)(=O)C(F)(F)F)CCC1C2 (stereo unspecified) | > 100 µM (inactive) | > 100 µM (inactive) | > 100 µM (inactive) | > 100 µM (inactive) | > 100 µM (inactive) | > 100 µM (inactive) |  | > 100 µM (inactive) | > 100 µM (inactive) | > 100 µM (inactive) | > 100 µM (inactive) | > 100 µM (inactive) | > 100 µM (inactive) | > 100 µM (inactive) | > 100 µM (inactive) | > 100 µM (inactive) | 1 µM (active) | > 100 µM (inactive) | > 100 µM (inactive) | > 100 µM (inactive) |
| CC(C(O)Cc1ccccc1)N(C)/N=N/c1ccc([N+](=O)[O-])cc1 (stereo unspecified) | 21.2 µM (inactive) | 27 µM (inactive) | 16.7 µM (inactive) | 18.6 µM (inactive) | 14.6 µM (inactive) | 19.3 µM (inactive) |  | 18.8 µM (inactive) | 18.3 µM (inactive) | 16.9 µM (inactive) | 1.19 µM (inactive) | 19.8 µM (inactive) | 18 µM (inactive) | 16.9 µM (inactive) | 22.3 µM (inactive) | 39.4 µM (inactive) |  | 17.7 µM (inactive) | 84.1 µM (inactive) | 17.6 µM (inactive) |
| COC(=O)C1=C(C)C=C(N2CCOCC2)C(C(=O)OC)C1c1ccccc1 (stereo unspecified) | > 10 µM (inactive) | > 10 µM (inactive) | > 10 µM (inactive) | > 10 µM (inactive) | > 10 µM (inactive) | > 10 µM (inactive) | > 10 µM (inactive) | > 10 µM (inactive) | > 10 µM (inactive) | > 10 µM (inactive) | > 10 µM (inactive) | > 10 µM (inactive) | > 10 µM (inactive) | > 10 µM (inactive) | > 10 µM (inactive) | > 10 µM (inactive) |  | > 10 µM (inactive) |  | > 10 µM (inactive) |
| Nc1ncc2ncn(C3CCC(CO)O3)c2n1 (stereo unspecified) | > 100 µM (inactive) | > 100 µM (inactive) |  | > 100 µM (inactive) | > 100 µM (inactive) | > 100 µM (inactive) | > 100 µM (inactive) | > 100 µM (inactive) | > 100 µM (inactive) | > 100 µM (inactive) |  | > 100 µM (inactive) | > 100 µM (inactive) | > 100 µM (inactive) | > 100 µM (inactive) | > 100 µM (inactive) | > 100 µM (inactive) | > 100 µM (inactive) | > 100 µM (inactive) | > 100 µM (inactive) |
| [N-]=[N+]=C(C(=O)OCC#CCOC(=O)C(=[N+]=[N-])S(=O)(=O)c1ccccc1)S(=O)(=O)c1ccccc1 | > 10 µM (inactive) | > 10 µM (inactive) | > 10 µM (inactive) | > 10 µM (inactive) | > 10 µM (inactive) | > 10 µM (inactive) | > 10 µM (inactive) | > 10 µM (inactive) | > 10 µM (inactive) | > 10 µM (inactive) | > 10 µM (inactive) | > 10 µM (inactive) | > 10 µM (inactive) | > 10 µM (inactive) | > 10 µM (inactive) | > 10 µM (inactive) |  | > 10 µM (inactive) | > 10 µM (inactive) | > 10 µM (inactive) |
| CC(=O)C(C(=O)c1ccc(C)cc1)[C@@H]1OC(C)(C)O[C@@H]1[C@H]1COC(C)(C)O1 (stereo partly specified) | 18.1 µM (inactive) | 7.74 µM (inactive) | 25.1 µM (inactive) | 5.21 µM (inactive) | 10.5 µM (inactive) | 7.21 µM (inactive) | 4.89 µM (inactive) | 9.93 µM (inactive) | 8.57 µM (inactive) | 2.36 µM (inactive) | 9.62 µM (inactive) | 37.7 µM (inactive) | 20.8 µM (inactive) | 8.99 µM (inactive) | 51.2 µM (inactive) | 15.7 µM (inactive) |  | 6.41 µM (inactive) | 1.67 µM (inactive) | 7.26 µM (inactive) |
| Cn1c2ccccc2c(=S)c2cc(NC(=O)CCCCC(=O)Nc3ccc4c(c3)c(=S)c3ccccc3n4C)ccc21 | > 100 µM (inactive) | > 100 µM (inactive) | > 100 µM (inactive) | > 100 µM (inactive) | 65.9 µM (inactive) | > 100 µM (inactive) | > 100 µM (inactive) | > 100 µM (inactive) | > 100 µM (inactive) | > 100 µM (inactive) | > 100 µM (inactive) | > 100 µM (inactive) | > 100 µM (inactive) | > 100 µM (inactive) | > 100 µM (inactive) | > 100 µM (inactive) | > 100 µM (inactive) | 55.8 µM (inactive) |  | 34.3 µM (inactive) |
| CCCC(Sc1nc(N)nc2nc[nH]c12)C(=O)O (stereo unspecified) | > 100 µM (inactive) | 57.9 µM (inactive) | 34.3 µM (inactive) | 78.5 µM (inactive) | > 100 µM (inactive) | 47.5 µM (inactive) | 49 µM (inactive) | 41.9 µM (inactive) | > 100 µM (inactive) | 35.2 µM (inactive) | 81.5 µM (inactive) | 59.7 µM (inactive) | > 100 µM (inactive) | > 100 µM (inactive) | 58.3 µM (inactive) | > 100 µM (inactive) |  | > 100 µM (inactive) | > 100 µM (inactive) | 56.2 µM (inactive) |
| ONCCCn1cnc2c(NC3CC3)ncnc21 | > 100 µM (inactive) | > 100 µM (inactive) | > 100 µM (inactive) | > 100 µM (inactive) | > 100 µM (inactive) | > 100 µM (inactive) | > 100 µM (inactive) | > 100 µM (inactive) | > 100 µM (inactive) | > 100 µM (inactive) | > 100 µM (inactive) | > 100 µM (inactive) | > 100 µM (inactive) | > 100 µM (inactive) | > 100 µM (inactive) | > 100 µM (inactive) | > 100 µM (inactive) | > 100 µM (inactive) |  | > 100 µM (inactive) |
| CC1(C)OCC(C2OC(OC(=O)c3ccc([N+](=O)[O-])cc3)C3OC(C)(C)OC23)O1 (stereo unspecified) | > 100 µM (inactive) | > 100 µM (inactive) | > 100 µM (inactive) | > 100 µM (inactive) | > 100 µM (inactive) | > 100 µM (inactive) | 75.5 µM (inactive) | 69.5 µM (inactive) | > 100 µM (inactive) | > 100 µM (inactive) | 58.1 µM (inactive) | 53.2 µM (inactive) | > 100 µM (inactive) | > 100 µM (inactive) | > 100 µM (inactive) | 59 µM (inactive) | > 100 µM (inactive) | 49 µM (inactive) |  | > 100 µM (inactive) |
| Cc1ccc2nc(-c3ccc(NC(=O)c4ccc(N)cc4)c(S(=O)(=O)O)c3)sc2c1 | > 100 µM (inactive) | > 100 µM (inactive) | > 100 µM (inactive) | > 100 µM (inactive) | > 100 µM (inactive) | > 100 µM (inactive) | > 100 µM (inactive) | > 100 µM (inactive) | > 100 µM (inactive) | > 100 µM (inactive) | > 100 µM (inactive) | > 100 µM (inactive) | > 100 µM (inactive) |  | > 100 µM (inactive) | > 100 µM (inactive) |  | > 100 µM (inactive) | > 100 µM (inactive) | > 100 µM (inactive) |
| C/C(=N\NC(=S)N(C)C)c1ccccn1 | < 0.01 µM (active) | 0.161 µM (active) | 0.161 µM (active) | < 0.01 µM (active) | < 0.01 µM (active) | 0.305 µM (active) | 0.247 µM (active) | < 0.01 µM (active) | < 0.01 µM (active) | < 0.0379 µM (active) | 0.41 µM (active) | < 0.01 µM (active) | 0.269 µM (active) | 0.139 µM (active) | < 0.0264 µM (active) | 1.47 µM (inactive) |  | < 0.01 µM (active) | < 0.01 µM (active) | < 0.01 µM (active) |
| O=C(O)c1cc(NCc2cc(O)ccc2O)ccc1O [LAVENDUSTIN C] | > 100 µM (inactive) | > 100 µM (inactive) | > 100 µM (inactive) | > 100 µM (inactive) | > 100 µM (inactive) | 24.8 µM (inactive) | 16.2 µM (inactive) | > 100 µM (inactive) | > 100 µM (inactive) |  | > 100 µM (inactive) | > 100 µM (inactive) | > 100 µM (inactive) | > 100 µM (inactive) | > 100 µM (inactive) | > 100 µM (inactive) |  | > 100 µM (inactive) |  |  |
